Experimental data reported in PMC4841555, “Optimization of the All-D Peptide D3 for Aβ Oligomer Elimination” (PLoS ONE, 2016).
Non-standard residues stand in square brackets, D forms with d. Residues, ends and D or L forms follow the SMILES beside them.

Assays:
[1] = target: T1, Aβ(1–42) oligomers (Homo sapiens, UniProt P05067); assay: QIAD assay (Aβ oligomer elimination); assay type: biochemical; conditions: 20 μM DB3, 80 μM Aβ(1–42) preincubated 4.5 h, 40 min with peptide, density gradient centrifugation, RP-HPLC, vs Aβ only control, triplicate
T1 construct: Aβ(1–42), N-terminally biotinylated Aβ(1–42) and FITC-Aβ(1–42) were purchased from Bachem; purchased Bachem (Heidelberg, Germany)
Method: The quantitative determination of interference with Aβ(1–42) aggregate size distribution (QIAD) was performed as described before. In brief, 80 μM Aβ(1–42) was incubated in 10 mM sodium phosphate buffer, pH 7.4 for 4.5 h at 22°C with 600 rpm agitation. Aβ(1–42) aggregation was continued for an additional 40 min with or without DB peptide. The obtained partial size distribution was analyzed by applying density gradient centrifugation. 100 μl of the incubated sample was placed on top of a gradient with 5 to 50% iodixanol (Optiprep, Axis-shield, Oslo, Norway) and separated at 259.000 x g for 3 h at 4°C using an ultracentrifuge (Optima MAX-XP, Beckman Coulter, Brea, USA). Fourteen fractions of 140 μl were taken from top to bottom. […] For quantification of the Aβ(1–42) amount in each fraction, reversed-phase high performance liquid chromatography (RP-HPLC) was performed using a Zorbax SB-300 C8 column (Agilent, Böblingen, Germany) connected to an Agilent 1260 Infinity system using 30% (v/v) acetonitrile with 0.1% (v/v) trifluoroacetic acid (TFA) as the mobile phase with a flow of 1 ml/min and a column temperature of 80°C. […] The UV absorption at 214 nm was measured. For quantification of the Aβ(1–42) amount, the area under the peak representing Aβ(1–42) was calculated and the molar concentration was determined using a calibration curve. […]

[2] = target: T2, Aβ(1–42) (Homo sapiens, UniProt P05067); assay: Thioflavin T (ThT) fibril formation assay; assay type: biochemical; conditions: pH 7.4, 20 μM Aβ(1–42), 20 μM peptide (method: 31 μg/ml), 20 μM ThT, 10 mM sodium phosphate pH 7.4, 37°C, compared after 5 h with Aβ(1–42)-only control; read-out: inhibition of Aβ(1–42) fibril formation (ThT fluorescence)
T2 construct: Aβ(1–42), N-terminally biotinylated Aβ(1–42) and FITC-Aβ(1–42) were purchased from Bachem; purchased Bachem (Heidelberg, Germany)
Method: 20 μM Aβ(1–42) was mixed with 20 μM Thioflavin T (ThT) and 31 μg/ml DB3 or DB3DB3 in 10 mM sodium phosphate buffer, pH 7.4. The assay was performed using a non-binding 96 well plate (Greiner Bio-One, Frickenhausen, Germany). ThT fluorescence was measured every 15 min at λex = 440 nm and λem = 490 nm in a temperature-controlled plate reader (Polarstar Optima, BMG, Offenburg, Germany) at 37°C with 1 min agitation before every measurement. Each value was background corrected using the ThT fluorescence of a peptide solution without Aβ(1–42). To investigate the influence of DB1 to DB5 on Aβ fibril formation, a Thioflavin T (ThT) assay was performed. In an aqueous environment the benzothiazole dye has a low fluorescence. […] The emission at 490 nm is directly proportional to the quantity of amyloid fibrils. Fibril formation of Aβ can be followed in real time by measuring the ThT fluorescence. Therefore, the inhibitory effects of the D-peptides DB1 to DB5 and D3 were investigated by co-incubating these peptides with Aβ(1–42) and performing the ThT assay. Fluorescence emission data were compared after 5 h incubation, because after this period the Aβ(1–42) control (without added peptide) reached its fluorescence maximum. […] 20 μM Aβ(1–42) was mixed with 20 μM DB1 to DB5 or 10 μM DB3DB3 and the ThT fluorescence was monitored. Aβ(1–42) without peptide addition was taken as the control. The ThT fluorescence of all samples were compared after 5 h, where the control, Aβ(1–42) only, reached its maximum in fluorescence emission. The Mann-Whitney-U-test was used for statistical analysis. * p < 0.05; ** p < 0.01; *** p < 0.001.

[3] = test system: PC12 cells; assay: MTT cell viability assay; assay type: cell-based, rat; conditions: 5 μM peptide without Aβ, 24 h
Method: Rat pheochromocytoma PC12 cells (Leibniz Institute DSMZ, Braunschweig, Germany) were cultivated in DMEM medium supplemented with 10% fetal bovine serum and 5% horse serum. 10,000 cells per well were seeded on collagen-coated 96 well plates (Gibco, Life technology, Carlsberg, USA) and incubated in a 95% humidified atmosphere with 5% CO2 at 37°C for 24 h. […] DB peptide was then added at different concentrations and incubated for further 40 min at 21°C and 600 rpm agitation before addition to the PC12 cells. […] Cell viability was then measured using the Cell proliferation Kit I (MTT) (Roche, Basel, Switzerland) according to the manufacturer’s instruction. The absorbance of the formazan product was determined by measuring at 570 nm after subtracting the absorption at 660 nm. For absorption measurements, a Polarstar Optima plate reader (BMG, Offenburg, Germany) was used. All results were normalized to cells that were treated with buffer only.
The cell viability assay was performed using PC12 cells in a MTT test. […] The absorption of buffer treated cells was set to 100% cell viability. […] The Mann-Whitney-U-test was used for statistical analysis. * p < 0.05; ** p < 0.01; *** p < 0.001.

T1 sequence (P05067 672-713 limits assumed): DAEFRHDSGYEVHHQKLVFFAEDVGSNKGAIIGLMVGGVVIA
T2 sequence (P05067 672-713 limits assumed): as above

`CC[C@@H](C)[C@@H](NC(=O)[C@H]1CCCN1C(=O)[C@H](N)CCCNC(=N)N)C(=O)N[C@@H](C(=O)N[C@H](CCCNC(=N)N)C(=O)N[C@H](CC(C)C)C(=O)N[C@H](CCCNC(=N)N)C(=O)N[C@@H](C(=O)N[C@H](Cc1c[nH]cn1)C(=O)N[C@H](CCC(N)=O)C(=O)N[C@H](CC(N)=O)C(=O)N[C@H](CCCNC(=N)N)C(N)=O)[C@H](C)O)[C@H](C)O` [DB3] (H-[dR][dP][dI][dT][dR][dL][dR][dT][dH][dQ][dN][dR]-NH2) was tested, and the “reduction of the amount of Aβ oligomers” value [1] was ~ 27%, the inhibition at 31 µg/mL [2] was 80% and the “effect of peptide alone on PC12 cell viability” value [3] was “not toxic”.
